# “And” between values parts separate entries of the source, which are not always exact repeats. Equal values may be shown once. Read-outs that look alike come from different tables or passages of the source.
# Legend:
# Neurological toxicity [1] = experiment: Test 3: neurological toxicity, rats p.o.; format: in vivo
# Source text: (§1) Rats received test compounds orally.
# (§2) Table 1: Primary Screening (Test 1) data for Anticonvulsant Activity and Neurotoxicity in Mice (test compound administered i.p.)
# MES-induced seizures [2] = experiment: Test 1: Maximal Electroshock Test (MES), mice i.p.; format: in vivo; details: for MES: class symbol = dose
# Method: (§3) Most of the prodrugs and mutual prodrugs of anticonvulsants described in this invention were evaluated at National Institute of Neurological Disorders and Stroke (NINDS), National Institute of Health (NIH), under their Antiepileptic Screening Program (ASP).
# (§4) Test 1 is an initial screening for anticonvulsant activity in the Maximal Electroshock Test (MES) and Subcutaneous Metrazol Seizure Threshold Test (scMET) models combined with an initial assessment of toxicity (TOX) in mice via i.p. injection (see further explanation below). The data for each condition is presented as N/F, where N = number of animals protected from seizure and F = number of animals tested. For test of toxicity, N = number of animals displaying toxic effects and F = number of animals tested. Any deaths occurring during the test were recorded.
# (§5) Maximal Electroshock Test (MES): The MES is a model for generalized tonic-clonic seizure and provides an indication of a compound's ability to prevent seizure spread when all neuronal circuits in the brain are maximally active. These seizures are highly reproducible and electro-physiologically consistent with human seizures. For all tests based on MES convulsions, 60 Hz of alternating current (50 mA in mice) is delivered for […] by corneal electrodes, which have been primed with an electrolyte solution containing an anesthetic agent (0.5% tetracaine hydrochloride). Mice were tested at various intervals following doses of 30, 100 and 300 mg/kg of test compound given by i.p. injection of a volume of 0.01 mL/g. Other doses can be used if indicated by previously known pharmacology. An animal is considered "protected" from MES-induced seizures upon abolition of the hind-limb tonic extensor component of the seizure.
# clonic seizures [3] = experiment: Test 1: Subcutaneous Metrazol Seizure Threshold Test (scMET), mice i.p.; format: in vivo; details: class symbol = dose
# Method: as §3, §4
# (§6) Subcutaneous Metrazol Seizure Threshold Test (scMET): Subcutaneous injection of the convulsant metrazol produces clonic seizures in laboratory animals. […] Animals were pretreated with various doses of the test compound given by i.p. injection. At the previously determined Time to Peak Effect (TPE) of the test compound, the dose of metrazol which will produce convulsions in 97% of animals (CD97: 85 mg/kg in mice) was injected into a loose fold of skin in the midline of the neck. The animals were placed in isolation cages to minimize stress and observed for the next 30 minutes for the presence or absence of a seizure. An episode of clonic spasms, approximately […], of the fore and/or hind limbs, jaws, or vibrissae is taken as the end point.
# Neurological toxicity [4] = experiment: Test 2: neurological toxicity, rats p.o.; format: in vivo; details: 30 mg/kg
# Source text: as §1
# MES-induced seizures [5] = experiment: Test 3: MES quantification (time to peak effect, ED50), rats p.o.; format: in vivo; details: for Biological Response MES (number of animal protected/number of animal tested): time 6 h
# [6] = test system: minimal muscular or neurological impairment; experiment: Test 1: Acute toxicity, minimal motor impairment (rotorod), mice i.p.; format: in vivo; details: for Rotorod Toxicity: class symbol = dose
# Method: as §3, §4
# clonic seizures [7] = experiment: Test 3: scMET, rats p.o.; format: in vivo; details: 50 mg/kg
# Method: as §6, §1, §2
# MES-induced seizures [8] = experiment: Test 2: MES, rats p.o.; format: in vivo; details: 30 mg/kg
# Source text: as §5, §1
# mucosal damage = details: rats, oral, 3 hours after administration
# [9] = test system: carrageenan-induced rat paw edema; experiment: Carrageenan-induced rat paw edema model; format: in vivo; details: 75 mg/kg equivalent dose of aspirin, p.o.
# Method: Male or female Sprague-Dawley rats weighing 150-200 g were used in the study. The rats were fed normal standard laboratory chow and maintained under standard conditions (room temperature of 22 ± 2 °C; 50 ± 10 % relative humidity; artificial light 06:00 to 18:00). All experimental procedures mentioned below are approved by institutional animal research committees and were performed in accordance with standard guidelines for the treatment of animals.
# Anti-inflammatory activity of test compounds was measured in carrageenan-induced rat paw edema model (Takeuchi et al., J. Pharmacol. Exp. Ther. 1998, 286 (1), 115-121). […] We have not yet evaluated I-C1-NOPD5Bin this efficacy test.
# [10] = In vitro plasma stability; details: rat plasma at 37 °C, 30 minutes incubation, HPLC analysis
# Method: HPLC: Waters Allience analytical HPLC equipped with 2996 PDA detector and Empower software were used to analyze the samples.
# HPLC Column: Waters X-Terra RP-18 analytical column, 150 X 3.9 mm, 5 .
# HPLC Method: Flow: 1 mL/min, detecter set at 210 nm and at Maxplot (210-400 nm range). Solvent A: Acetonitrile; Solvent B: 0.1% TFA in water. Elution method: A linear gradient of 0-100% A.
# The compounds were extracted back into acetonitrile with rigorous vortex.
# [11] = Oral pharmacokinetics (plasma salicylate by HPLC); details: rats, 35 mg/kg equivalent dose
structure (smiles),measurement,setting,value
CCOC(=O)CC1(CNC(=O)OCCSSCCOC(=O)Nc2nnc(-c3cccc(Cl)c3Cl)c(N)n2)CCCCC1 [I-AA-MPD12],toxicity (in words),Neurological toxicity [1]; 50 mg/kg,none of the animals exhibited toxicity
same,Toxicity (number of animals exhibiting toxicity/number of animals tested),"Neurological toxicity [1]; 50 mg/kg, 1.0 h",0/4 (5 0)
same,Toxicity (number of animals exhibiting toxicity/number of animals tested),"Neurological toxicity [1]; 50 mg/kg, 2.0 h",0/4 (50)
same,Toxicity (number of animals exhibiting toxicity/number of animals tested),"Neurological toxicity [1]; 50 mg/kg, 4.0 h",0/4 (50)
same,Toxicity (number of animals exhibiting toxicity/number of animals tested),"Neurological toxicity [1]; 50 mg/kg, 6.0 h",0/4 (50)
same,Toxicity (number of animals exhibiting toxicity/number of animals tested),"Neurological toxicity [1]; 50 mg/kg, 8.0 h",0/4 (50)
same,Toxicity (number of animals exhibiting toxicity/number of animals tested),"Neurological toxicity [1]; 50 mg/kg, 24 h",0/4 (50)
same,toxicity (in words),Neurological toxicity [1]; 100 mg/kg,one of eight animals exhibited mild ataxia
same,Toxicity (number of animals exhibiting toxicity/number of animals tested),"Neurological toxicity [1]; 100 mg/kg, 8.0 h, mild ataxia only (footnote h)",1/8 (100)^h
same,"activity in MES (Test 1, in words)",MES-induced seizures [2],active in MES
same,MES (number of animal protected/number of animal tested),"MES-induced seizures [2]; 100 mg/kg (++), 4.0 h",3/3
same,MES (number of animal protected/number of animal tested),"MES-induced seizures [2]; 100 mg/kg (++), 6 hours after dosing",1/3
same,MES (number of animal protected/number of animal tested),"MES-induced seizures [2]; 300 mg/kg (+), 4.0 h",1/1
same,MES,MES-induced seizures [2]; 0.5 h,- (- = no activity or no toxicity at 300 mg/kg)
same,MES,"MES-induced seizures [2]; at 6 hours after dosing (footnotes g, m)",++ (++ = activity or toxicity at 100 mg/kg)
same,ScMET,clonic seizures [3]; 0.5 h,- (- = no activity or no toxicity at 300 mg/kg)
same,ScMET,clonic seizures [3]; 4.0 h,- (- = no activity or no toxicity at 300 mg/kg)
same,Toxicity (number of animals exhibiting toxicity/number of animals tested),Neurological toxicity [4]; 0.50 h,0/4
same,Toxicity (number of animals exhibiting toxicity/number of animals tested),Neurological toxicity [4]; 1.00 h,0/4
same,Toxicity (number of animals exhibiting toxicity/number of animals tested),Neurological toxicity [4]; 2.00 h,0/4
same,Toxicity (number of animals exhibiting toxicity/number of animals tested),Neurological toxicity [4]; 4.00 h,0/4
same,Time to Peak Effect MES (number of animal protected/number of animal tested),"MES-induced seizures [5]; 15 mg/kg, 6.0 h",2/4
same,Time to Peak Effect MES (number of animal protected/number of animal tested),"MES-induced seizures [5]; 15 mg/kg, 8.0 h",1/4
same,Time to Peak Effect MES (number of animal protected/number of animal tested),"MES-induced seizures [5]; 30 mg/kg, 0.5 h",0/4
same,Time to Peak Effect MES (number of animal protected/number of animal tested),"MES-induced seizures [5]; 30 mg/kg, 1.0 h",0/4
same,Time to Peak Effect MES (number of animal protected/number of animal tested),"MES-induced seizures [5]; 30 mg/kg, 2.0 h",1/4
same,Time to Peak Effect MES (number of animal protected/number of animal tested),"MES-induced seizures [5]; 30 mg/kg, 4.0 h",3/4
same,Time to Peak Effect MES (number of animal protected/number of animal tested),"MES-induced seizures [5]; 30 mg/kg, 6.0 h",4/4
same,Time to Peak Effect MES (number of animal protected/number of animal tested),"MES-induced seizures [5]; 30 mg/kg, 8.0 h",4/4
same,Time to Peak Effect MES (number of animal protected/number of animal tested),"MES-induced seizures [5]; 30 mg/kg, 24 h",2 out of 4 and 2/4
same,potency compared with parent drug lamotrigine (in words),MES-induced seizures [5]; MES,less potent than lamotrigine
same,ED50,"MES-induced seizures [5]; MES model, at the compound's time of peak effect (4, 6 or 8 h)",17 mg/kg
same,duration of protection (in words),"MES-induced seizures [5]; MES, 30 mg/kg, up to 24 h",significant extension in the duration of protection
same,time to peak effect,"MES-induced seizures [5]; MES, dose of 30 mg/kg",6.0 to 8.0 h
same,Biological Response MES (number of animal protected/number of animal tested),MES-induced seizures [5]; dose 7.5 mg/kg,0/8
same,Biological Response MES (number of animal protected/number of animal tested),MES-induced seizures [5]; dose 15 mg/kg,5/8
same,Biological Response MES (number of animal protected/number of animal tested),MES-induced seizures [5]; dose 30 mg/kg,7/8
same,Biological Response MES (number of animal protected/number of animal tested),MES-induced seizures [5]; dose 60 mg/kg,7/8
same,"toxicity (Test 1, in words)",[6],no or mild toxicity
same,Rotorod Toxicity,[6]; 0.5 h,- (- = no activity or no toxicity at 300 mg/kg)
same,Rotorod Toxicity,[6]; 4.0 h,- (- = no activity or no toxicity at 300 mg/kg)
same,Time to Peak Effect ScMET (number of animal protected/number of animal tested),clonic seizures [7]; 1.0 h,1/4
same,Time to Peak Effect ScMET (number of animal protected/number of animal tested),clonic seizures [7]; 2.0 h,0/4
same,Time to Peak Effect ScMET (number of animal protected/number of animal tested),clonic seizures [7]; 4.0 h,0/4
same,Time to Peak Effect ScMET (number of animal protected/number of animal tested),clonic seizures [7]; 6.0 h,1/4
same,Time to Peak Effect ScMET (number of animal protected/number of animal tested),clonic seizures [7]; 8.0 h,2/4
same,Time to Peak Effect ScMET (number of animal protected/number of animal tested),clonic seizures [7]; 24 h,0/4
same,MES (number of animal protected/number of animal tested),MES-induced seizures [8]; 0.50 h,0/4
same,MES (number of animal protected/number of animal tested),MES-induced seizures [8]; 1.00 h,0/4
same,MES (number of animal protected/number of animal tested),MES-induced seizures [8]; 2.00 h,1/4
same,MES (number of animal protected/number of animal tested),MES-induced seizures [8]; 4.00 h,3/4
CC(=O)Oc1ccccc1C(=O)OCCSSCCO[N+](=O)[O-] [I-C1-NOPD4],ulcer development (in words),mucosal damage; 100 mg/kg equivalent doses,none of the animals treated with the test compounds showed any signs of development of ulcers
same,anti-inflammatory activity (in words),[9],significant activity during the first two hours after drug administration
same,release of parent drug / conversion to salicylate,[10],converting to the expected metabolite (salicylate)
CC(=O)Oc1ccccc1C(=O)NC(=O)OCCSSCCO[N+](=O)[O-] [I-C1-NOPD5A],ulcer development (in words),mucosal damage; 200 mg/kg equivalent doses,none of the animals treated with the test compounds showed any signs of development of ulcers
same,anti-inflammatory activity (in words),[9],negligible anti-inflammatory activity at any time point tested
same,release of parent drug / conversion to salicylate,[10],converting to the expected metabolite (salicylate)
CC(=O)Oc1ccccc1C(=O)[N-]C(=O)OCCSSCCO[N+](=O)[O-].[Na+] [I-C1-NOPD5B],salicylate release profile (in words),[11],released in a sustained and controlled manner starting from 1 hour through 12 hours
same,ulcer development (in words),mucosal damage; 200 mg/kg equivalent doses,none of the animals treated with the test compounds showed any signs of development of ulcers
CC(=O)Oc1ccccc1C(=O)NCCSSCCO[N+](=O)[O-] [I-C1-NOPD6],prodrug or salicylate found in plasma,[11]; any time point up to 24 hrs,neither the prodrug nor the salicylate was found in the plasma
same,ulcer development (in words),mucosal damage; 100 mg/kg equivalent doses,none of the animals treated with the test compounds showed any signs of development of ulcers

# Reference: patent EP2266622A2, “Prodrugs containing novel bio-cleavable linkers” (Piramal Life Sciences Limited, priority 2004, dated 2006)
